# Results as given in patent publication US8748423B2, “Compositions and methods for the prevention and treatment of cancer” (Kinex Pharmaceuticals, LLC, priority 2010, dated 2014).
# Where “and” joins values, the source holds several entries; their conditions need not be identical. Equal entries are not always repeated. Entries after “also recorded” stand apart in the source; their conditions may differ.
# Key:
# SW1088 = experiment: brain tumor cell line growth inhibition, SW1088; assay type: cell-based; conditions: Homo sapiens; SW1088, astrocytoma
# Procedure: (§1) These GI50s were determined using standard tumor growth inhibition assays.
# LN-18 = experiment: brain tumor cell line growth inhibition, LN-18; assay type: cell-based; conditions: Homo sapiens; LN-18, glioblastoma; glioma
# Procedure: as §1
# [1] = tested on: various brain tumor cell lines; experiment: proliferation in various brain tumor cell lines; assay type: cell-based, human and mouse; conditions: all brain tumor cell lines evaluated
# Procedure: Compound 76 is a synthetic, orally bioavailable, novel small molecule microtubule polymerization inhibitor with very high CNS penetration. The efficacy of Compound 76 as a novel anti-cancer agent is tested directly using mouse model of malignant glioma. Compound 76 is an orally administered tubulin polymerization inhibitor that binds to a novel site on heterodimeric tubulin, and to a novel conformation of the dimer. Compound 76 can inhibit Src signaling in tumors. Compound 76 has been evaluated in various brain tumor cell lines. […] When administered orally to mice at a dose of 10 mg/kg, the ratio of drug levels in the brain compared to plasma levels was 0.76, indicating excellent BBB penetration as in Example 1.
# Compound 76 was evaluated in various human and mouse brain tumor cells derived from glioblastoma multiforme, astrocytoma and medulloblastoma. […] When administered to mice Compound 76 penetrated the brain by 76%, thereby successfully addressing the first major challenge in brain cancer drug discovery. Drugs which are used to treat brain tumors often penetrate only 20% or less.
# GL261 glioma [2] = experiment: intracranial GL261 glioma survival study; assay type: in vivo, C57BL/6 mice
# Procedure: The studies were conducted in C57BL/6 mice. GL261 glioma cells (1×10^5 in 5 μl DMEM) were implanted intracranial coordinates: bregma, lateral 2.0 mm, anterior 1.2 mm, 3.0 mm depth dura. Treatment was initiated 3 days post implantation.
# The median survival range and the log-rank (Mantel-Cox) statistical test results comparing the survival distributions of the samples.
# GL261 glioma [3] = experiment: orthotropic GL261 glioma model, immune-competent mice; assay type: in vivo, C57BL/6 mice
# Description: FIGS. 4A-C are a series of graphs showing the survival of C57BL6 mice with intracerebral GL261 glioma implants. Mice received intracerebral implants of 1×10^5 GL261 cells by stereotactic injection at 2 mm lateral, 1 mm anterior to bregma at 3 mm depth. After 4 days mice began indicated regimen of oral Compound 76. […] Compound 76 extended median survival from 21 to 29 days (range). n=10. […] Compound 76 extended median survival >100 days (range), with up to 60% of drug treated mice experiencing complete tumor regression, n=10. Long term survivors were confirmed tumor free by high field MRI in FIG. 6. […] See high field MRI in FIG. 6
# (§2) Compound 76 was also evaluated in the orthotropic GL261 glioma model in immune-competent, syngeneic C57BL/6 mice. Mice implanted intracerebrally with 1×10^5 GL261 cells treated with vehicle alone (saline) have a median survival time (MeST) of 21 days (range 18-28). Mice treated by oral Compound 76 (30 mg/kg, b.i.d.) have a MeST of 30.5 days ranging 23-32 days. In contrast, when Compound 76 is given orally at (30 mg/kg, s.i.d.) the MeST increases to over 120 days, with more than 60% of the treatment group still alive 12 months later (p<0.0001). […] Further experiments were performed using a SCID version of C57BL/6 mice (B6.CB17-Prkdc^scid/SzJ), a mouse model of B6 background, but is immune-compromised.
# as §2, with “was” for “was also”
smiles,measurement,setting,value
O=C(Cc1ccc(-c2ccc(N3CCOCC3)cc2)cn1)NCc1cccc(F)c1 [Compound 76],IC50,SW1088,22.1 nM
same,IC50,LN-18,2.9 nM
same,GI50,[1],< 55 nM
same,Median survival,GL261 glioma [2]; 15 mg/kg bid oral,30.5
same,survival Range,GL261 glioma [2]; 15 mg/kg bid oral,25-34
same,Median survival,GL261 glioma [2]; 30 mg/kg bid oral,29
same,survival Range,GL261 glioma [2]; 30 mg/kg bid oral,23-32
same,residual tumor by MRI,"GL261 glioma [3]; 30 mg/kg s.i.d., C57BL/6 mice",no residual tumor is observed
same,histopathology of tumor site / residual GL261 glioma,GL261 glioma [3]; Compound 76 treated mice,large areas of necrosis and lymphocytic infiltration; also recorded: lymphocytic infiltration of the tumor site
same,brain edema,GL261 glioma [3]; compared with placebo or Temodar treated mice,much less brain edema
same,"median survival time (MeST), range","GL261 glioma [3]; oral 30 mg/kg, b.i.d.",23 to 32 days
same,median survival time (MeST),"GL261 glioma [3]; oral 30 mg/kg, b.i.d. (twice daily), vehicle 21 days, 30 mg/kg",29 days and 30.5 days
same,treatment group still alive 12 months later,"GL261 glioma [3]; oral 30 mg/kg, s.i.d.",more than 60%
same,growth rate of intracerebral GL261 glioma,GL261 glioma [3]; relative to control groups,very significantly slows the rate of tumor growth; also recorded: slows the growth rate
same,treated mice with complete tumor regression,GL261 glioma [3]; single dose per day (s.i.d.),up to 60%
